Measured values reported in patent US8318710B2, “Skin treatments” (priority 2003, dated 2012).
Where two headings read alike, the source gives them in different places.

What was measured:
[1] = system: RAR reporter gene construct (RAREs) with over-expressed RARγ, RXRα and LXRα in Cos-7 cells; settings: 24 hours, fold activation over vehicle (ethanol) control
[2] = system: CRABPII protein in primary dermal fibroblasts; assay: Fibroblast expression of CRABPII (Western blot); format: cell-based; settings: 24 hours; for Band Intensity (arbitrary units): CRABPII band; for Relative band intensity: relative to vehicle
Description: Cells were then plated out in 12 well plates at 38,000 cells per well, and incubated for 24 hours. […] Cells were treated with vehicle (ethanol) or 22R hydroxycholesterol and/or retinoic acid in 1 ml fresh medium (DMEM plus 10% FCS). Treatments were prepared as fresh 1000× stocks and diluted into medium immediately before addition to the cells. […] Cells were washed in 1 ml phosphate buffer saline and trypsinised from the plates. Cells were pelleted at 13000 g for 5 min and washed with 1 ml PBS. Cells were re-pelleted and re-suspended in protein lysis buffer (4M urea, 0.5% SDS, 10 mM EDTA in PBS with protease inhibitor cocktail). Samples were equilibrated for total protein content and the proteins separated by SDS-PAGE and blotted to nitrocellulose. Membranes were probed with antisera against the CRABPII protein and detected by ECL-plus. Intensity of signal was captured using a STORM scanner and quantified using ImageQuant 5.2.

Row | Compound | Fold activity +/− sd (n = 3) ([1]; 35 μM 22R hydroxycholesterol) | % change from vehicle ([2]; 5 μM 22R-hydroxycholesterol) | Band Intensity (arbitrary units) ([2]; 5 μM 22R-hydroxycholesterol) | Relative band intensity ([2]; 5 μM 22R-hydroxycholesterol) | Fold activity +/− sd (n = 3) ([1]; 0.1 μM all-trans retinoic acid) | % change from vehicle ([2]; 1 nM all-trans retinoic acid) | Band Intensity (arbitrary units) ([2]; 1 nM all-trans retinoic acid) | Relative band intensity ([2]; 1 nM all-trans retinoic acid)
1 | CC(C)CC[C@@H](O)[C@@H](C)[C@H]1CC[C@H]2[C@@H]3CC=C4C[C@@H](O)CC[C@]4(C)[C@H]3CC[C@]12C [22R hydroxycholesterol] | 1.209 +/− 0.030 fold | −0.8% | 167664.2 arbitrary units | 0.992 |  |  |  | 
2 | CC1=C(/C=C/C(C)=C/C=C/C(C)=C/C(=O)O)C(C)(C)CCC1 [all-trans retinoic acid] |  |  |  |  | 1.733 +/− 0.445 fold | +35.3% | 228603.88 arbitrary units | 1.353
